The values that follow come from patent US8829029B2, “Dual modulators of 5HT2A and D3 receptors” (Hoffmann-La Roche Inc., priority 2008, dated 2014).

The target in test [1] is human 5-HT2A serotonin receptor (Homo sapiens (Human), UniProt P28223). Briefly: Radioligand binding ([3H]-ketanserin) to cloned human 5-HT2A receptor expressed in HEK-293 EBNA cells. The conditions noted are these: membranes of transfected HEK-293 EBNA cells, 1.1 nM [3H]-ketanserin, 1 h at RT. The protocol:
The ability of the compounds to bind to the 5-HT2A, D3 and D2 receptors was determined using radioligand binding to cloned receptors selectively expressed in HEK-293 EBNA cells.
(§1) HEK-293 EBNA cells were transiently transfected with expression plasmids encoding for the human D2 or D3 dopamine- or for the human 5-HT2A serotonin receptor, respectively. The cells were harvested 48 h post-transfection, washed three times with cold PBS and stored at −80° C. prior to use. The pellet was suspended in cold 50 mM Tris-HCl buffer containing 10 mM EDTA (pH 7.4) and homogenized with a Polytron (Kinematica AG, Basel, Switzerland) for 20-30 sec at 12,000 rpm. After centrifugation at 48,000×g for 30 min at 4° C., the pellet was resuspended in cold 10 mM Tris-HCl buffer containing 0.1 mM EDTA (pH 7.4), homogenized, and centrifuged as above. This pellet was further resuspended in a smaller volume of ice cold 10 mM Tris-HCl buffer containing 0.1 mM EDTA (pH 7.4) and homogenized with a Polytron for 20-30 sec at 12,000 rpm. The protein content of this homogenate was determined with the Bio-Rad (Bradford) Protein Assay (Biorad Laboratories GmbH, München, Germany) according to the instructions of the manufacturer using gamma globulin as the standard. This homogenate was stored at −80° C. in aliquots and thawed immediately prior to use.
Aliquots of membrane preparations were thawed at RT, resuspended in assay buffer (D2, D3: 50 mM Tris-HCl, 120 mM NaCl, 5 mM MgCl2, 1 mM EDTA, 5 mM KCl, 1.5 mM CaCl2, pH=7.4; 5-HT2A: 50 mM Tris-HCl, 10 mM MgCl2, 1 mM EGTA, pH=7.4), homogenized with a Polytron for 20-30 sec at 12,000 rpm and adjusted to a final concentration of approximately 7.5 μg protein/well (D2, D3) and 15 μg protein/well (5-HT2A), respectively.
(§2) The binding affinity (Ki) of the compounds was determined using radioligand binding. Membranes were incubated in a total volume of 200 μl with a fixed concentration of radioligand (final concentration approximately 0.7 nM [^3H]-spiperone for D2, 0.5 nM [^3H]-spiperone for D3, and 1.1 nM [^3H]-ketanserin for 5-HT2A) and ten concentrations of test compound in ranging between 10 μM-0.1 nM for 1 h at RT. At the end of the incubation, the reaction mixtures were filtered on to unifilter 96-well white microplates with bonded GF/C filters (Packard BioScience, Zürich, Switzerland; preincubated for 1 h in 0.1% polyethylenimine (PEI) in assay buffer) with a Filtermate 196 harvester (Packard BioScience) and washed 3 times with cold assay buffer. The nonspecific binding was determined with equally composed reaction mixtures in the presence of 10 μM unlabelled spiperone. Per well 45 μl of Microscint 40 (Perkin Elmer, Schwerzenbach, Switzerland) was added, plates for sealed, shaken for 20 min and counted for 3 min on a Topcount Microplate Scintillation Counter (Canberra Packard SA, Zürich, Switzerland) with quenching correction.
(§3) The CPM value for each duplicate of a concentration of competing compound was averaged (y1), then the % specific binding was calculated according to the equation (((y1−non-specific)/(total binding−non-specific))×100). Graphs were plotted with the % specific binding using XLfit, a curve fitting program that iteratively plots the data using Levenburg Marquardt algorithm. The single site competition analysis equation used was y=A+((B−A)/(1+((x/C)^D))), where y is the % specific binding, A is the minimum y, B is the maximum y, C is the IC50, x is the log10 of the concentration of the competing compound and D is the slope of the curve (the Hill Coefficient). From these curves the IC50 (inhibition concentration at which 50% specific binding of the radioligand was displaced) and Hill coefficient were determined. The affinity constant (Ki) was calculated using the Cheng-Prusoff equation Ki=(IC50/1+([L]/Kd), where [L] is the concentration of radioligand and Kd is the dissociation constant of the radioligand at the receptor as determined by the saturation isotherm.

Test [2] has as its target human D3 dopamine receptor (Homo sapiens (Human), UniProt P35462). Kind of test: Radioligand binding ([3H]-spiperone) to cloned human D3 receptor expressed in HEK-293 EBNA cells. The conditions noted are these: membranes of transfected HEK-293 EBNA cells, 0.5 nM [3H]-spiperone, 1 h at RT. The protocol: as §1, with “The pellet was suspended in cold 50 mM Tris-HCl buffer containing 10 mM EDTA (pH 7.4) and homogenized with a Polytron (Kinematica AG, Basel, Switzerland) for 20-30 sec at 12,000 rpm.” left out, “This pellet was further resuspended in a smaller volume of ice cold 10 mM Tris-HCl buffer containing 0.1 mM EDTA (pH 7.4) and homogenized with a Polytron for 20-30 sec at 12,000 rpm.” left out
as §2, §3

human D3 dopamine receptor, sequence (P35462 whole entry): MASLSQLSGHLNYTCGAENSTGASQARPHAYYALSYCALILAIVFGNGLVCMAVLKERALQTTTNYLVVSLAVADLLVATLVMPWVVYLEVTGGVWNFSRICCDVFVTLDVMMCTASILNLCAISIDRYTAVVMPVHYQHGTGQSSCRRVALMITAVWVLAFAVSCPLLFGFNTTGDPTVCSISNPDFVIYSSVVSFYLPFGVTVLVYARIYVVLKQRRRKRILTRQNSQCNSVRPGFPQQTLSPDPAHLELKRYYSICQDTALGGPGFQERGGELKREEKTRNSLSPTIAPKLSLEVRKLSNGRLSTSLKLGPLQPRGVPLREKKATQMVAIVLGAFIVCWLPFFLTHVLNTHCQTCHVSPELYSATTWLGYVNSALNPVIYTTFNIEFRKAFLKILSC

One may read the Ki as a dissociation constant, usually derived from enzyme kinetics or from competition with a known ligand. On to `O=C(N[C@H]1CC[C@H](CCN2CCC(c3noc4cc(F)ccc34)CC2)CC1)c1ccc(Cl)cc1` [Example 10, 4-Chloro-N-trans (4-{2-[4-(6-fluoro-benzo[d]isoxazol-3-yl)-piperidin-1-yl]-ethyl}-cyclohexyl)-benzamide], for which the inhibition constant (Ki) worked out at 2.67 nM in test [1] and 3.5 nM in test [2].

As for `O=C(N[C@H]1CC[C@H](CCN2CCC(c3noc4cc(F)ccc34)CC2)CC1)c1ccc(N2CCS(=O)(=O)CC2)cc1` [Example 11, 4-(1,1-Dioxo-1,6-thiomorpholin-4-yl)-N-trans (4-{2-[4-(6-fluoro-benzo[d]isoxazol-3-yl)-piperidin-1-yl]-ethyl}-cyclohexyl)-benzamide], the Ki in test [1] stood at 2.48 nM; in test [2], 4.67 nM.

Turning to `COc1cc(C(=O)N[C@H]2CC[C@H](CCN3CCC(c4noc5cc(F)ccc45)CC3)CC2)ccn1` [Example 13, N-trans (4-{2-[4-(6-Fluoro-benzo[d]isoxazol-3-yl)-piperidin-1-yl]-ethyl}-cyclohexyl)-2-methoxy-isonicotinamide], the Ki stood at 1.62 nM in test [1] and 3.74 nM in test [2].

With `O=C(N[C@H]1CC[C@H](CCN2CCC(c3noc4cc(F)ccc34)CC2)CC1)c1ccc(N2CCCCC2)cc1` [Example 14, N-trans (4-{2-[4-(6-Fluoro-benzo[d]isoxazol-3-yl)-piperidin-1-yl]-ethyl}-cyclohexyl)-4-piperidin-1-yl-benzamide], the inhibition constant (Ki) in test [1] was 2.6 nM; in test [2] it was 8.69 nM.

Regarding `O=C(N[C@H]1CC[C@H](CCN2CCC(c3noc4cc(F)ccc34)CC2)CC1)C1COc2ccccc2O1` (stereo partly drawn) [Example 15, 2,3-Dihydro-benzo[1,4]dioxine-2-carboxylic acid trans (4-{2-[4-(6-fluoro-benzo[d]isoxazol-3-yl)-piperidin-1-yl]-ethyl}-cyclohexyl)-amide], the Ki amounted to 2.57 nM in test [1] and 12.7 nM in test [2].

For `Cc1ccn(CC(=O)N[C@H]2CC[C@H](CCN3CCC(c4noc5cc(F)ccc45)CC3)CC2)n1` [Example 16, N-trans (4-{2-[4-(6-Fluoro-benzo[d]isoxazol-3-yl)-piperidin-1-yl]-ethyl}-cyclohexyl)-2-(3-methyl-pyrazol-1-yl)-acetamide], the Ki in test [1] turned out to be 2.8 nM; in test [2], 27.6 nM.

As to `O=C(N[C@H]1CC[C@H](CCN2CCC(c3noc4cc(F)ccc34)CC2)CC1)c1ccc(-n2cccc2)cc1` [Example 17, N-trans(4-{2-[4-(6-Fluoro-benzo[d]isoxazol-3-yl)-piperidin-1-yl]-ethyl}-cyclohexyl)-4-pyrrol-1-yl-benzamide], the values for the Ki in test [1] and in test [2] were 2.45 nM and 2.61 nM, respectively.

As for `O=C(N[C@H]1CC[C@H](CCN2CCC(c3noc4cc(F)ccc34)CC2)CC1)C1(O)CC1` [Example 18, 1-Hydroxy-cyclopropanecarboxylic acid trans (4-{2-[4-(6-fluoro-benzo[d]isoxazol-3-yl)-piperidin-1-yl]-ethyl}-cyclohexyl)-amide], the values for the Ki in test [1] and in test [2] were 1.44 nM and 5.92 nM, respectively.

In the case of `O=C(N[C@H]1CC[C@H](CCN2CCC(c3noc4cc(F)ccc34)CC2)CC1)C1(C(F)(F)F)CCC1` [Example 19, 1-Trifluoromethyl-cyclobutanecarboxylic acid trans (4-{2-[4-(6-fluoro-benzo[d]isoxazol-3-yl)-piperidin-1-yl]-ethyl}-cyclohexyl)-amide], the Ki in test [1] was determined as 2.26 nM; in test [2], 7.74 nM.

As to `O=C(CC(F)(F)F)N[C@H]1CC[C@H](CCN2CCC(c3noc4cc(F)ccc34)CC2)CC1` [Example 20, 3,3,3-Trifluoro-N-trans (4-{2-[4-(6-fluoro-benzo[d]isoxazol-3-yl)-piperidin-1-yl]-ethyl}-cyclohexyl)-propionamide], the Ki came to 2.78 nM in test [1] and 5.19 nM in test [2].
